# Source: patent US20190256929A1, “PHARMACODYNAMIC BIOMARKERS FOR PERSONALIZED CANCER CARE USING EPIGENETIC MODIFYING AGENTS” (ORYZON GENOMICS, S.A., priority 2016, published 2019)
# Test system: small cell lung cancer cell lines
# Assay: qRT-PCR time- and dosage-dependent expression change of candidate PD markers ASCL1, GRP, NOTCH1 in SCLC cell lines
# Assay type: cell-based, human
# Procedure: Seven small cell lung cancer cell lines were treated with 0.1 nM, 1 nM and 10 nM (trans)-N1-((1R,2S)-2-phenylcyclopropyl)cyclohexane-1,4-diamine or vehicle 24 hr, 96 hr and 7 days. Lysates were prepared by lysis in RNA lysis buffer containing 1% β-mercaptoethanol. RNA extraction was performed using a Maxwell 16 instrument and a Maxwell 16 LEV simply RNA cells Kit (Promega), according to the manufacturer's instructions. The mRNA expression levels of each cell line after treatment were then measured using qRT-PCR. The RT-qPCR reaction was conducted using a one-step kit (ABI), with a duplexed house-keeping control (Assay ID Hs02800695_m1) using the assays in the table below. The log 2 fold changes for each gene were calculated by comparing with the vehicle controlled samples at 24 hr sampling point.
# Table 6 contains the dose-dependent effect on expression changes for candidate PD markers ASCL1 (Assay ID Hs04187546_g1), GRP (Assay ID Hs01107047_m1) and NOTCH1 (Assay ID Hs01062014_m1).
# [1] = LSD1i responsive cell lines, qRT-PCR
# [2] = NCI-H69, 0.1 nM, 24 hrs, vs vehicle at 24 hr
# [3] = NCI-H69, 0.1 nM, 96 hrs, vs vehicle at 24 hr
# [4] = NCI-H69, 0.1 nM, 168 hrs, vs vehicle at 24 hr
# [5] = NCI-H69, 1 nM, 24 hrs, vs vehicle at 24 hr
# [6] = NCI-H69, 1 nM, 96 hrs, vs vehicle at 24 hr
# [7] = NCI-H69, 1 nM, 168 hrs, vs vehicle at 24 hr
# [8] = NCI-H69, 10 nM, 24 hrs, vs vehicle at 24 hr
# [9] = NCI-H69, 10 nM, 96 hrs, vs vehicle at 24 hr
# [10] = NCI-H69, 10 nM, 168 hrs, vs vehicle at 24 hr
smiles,measurement,setting,value
"N[C@H]1CC[C@H](N[C@@H]2C[C@H]2c2ccccc2)CC1 [RG6016, (trans)-N1-((1R,2S)-2-phenylcyclopropyl)cyclohexane-1,4-diamine]",Log2_FC ASCL1,"DMS-114, 0.1 nM, 24 hrs",−0.28
same,Log2_FC GRP,"DMS-114, 0.1 nM, 24 hrs",0.32
same,Log2_FC NOTCH1,"DMS-114, 0.1 nM, 24 hrs",−0.47
same,Log2_FC ASCL1,"DMS-114, 0.1 nM, 96 hrs",0.18
same,Log2_FC GRP,"DMS-114, 0.1 nM, 96 hrs",0.25
same,Log2_FC NOTCH1,"DMS-114, 0.1 nM, 96 hrs",−0.11
same,Log2_FC ASCL1,"DMS-114, 0.1 nM, 168 hrs",0.93
same,Log2_FC GRP,"DMS-114, 0.1 nM, 168 hrs",0.08
same,Log2_FC NOTCH1,"DMS-114, 0.1 nM, 168 hrs",0.08
same,Log2_FC ASCL1,"DMS-114, 1 nM, 24 hrs",−0.50
same,Log2_FC GRP,"DMS-114, 1 nM, 24 hrs",0.45
same,Log2_FC NOTCH1,"DMS-114, 1 nM, 24 hrs",−0.47
same,Log2_FC ASCL1,"DMS-114, 1 nM, 96 hrs",−0.04
same,Log2_FC GRP,"DMS-114, 1 nM, 96 hrs",−0.34
same,Log2_FC NOTCH1,"DMS-114, 1 nM, 96 hrs",−0.23
same,Log2_FC ASCL1,"DMS-114, 1 nM, 168 hrs",1.02
same,Log2_FC GRP,"DMS-114, 1 nM, 168 hrs",0.86
same,Log2_FC NOTCH1,"DMS-114, 1 nM, 168 hrs",0.08
same,Log2_FC ASCL1,"DMS-114, 10 nM, 24 hrs",−0.52
same,Log2_FC GRP,"DMS-114, 10 nM, 24 hrs",0.51
same,Log2_FC NOTCH1,"DMS-114, 10 nM, 24 hrs",−0.35
same,Log2_FC ASCL1,"DMS-114, 10 nM, 96 hrs",−0.38
same,Log2_FC GRP,"DMS-114, 10 nM, 96 hrs",0.67
same,Log2_FC NOTCH1,"DMS-114, 10 nM, 96 hrs",−0.30
same,Log2_FC ASCL1,"DMS-114, 10 nM, 168 hrs",0.94
same,Log2_FC GRP,"DMS-114, 10 nM, 168 hrs",−0.12
same,Log2_FC NOTCH1,"DMS-114, 10 nM, 168 hrs",0.13
same,Regulation of ASCL1 (FIG. 8),[1],down
same,Regulation of GRP (FIG. 8),[1],down
same,Regulation of NOTCH1 (FIG. 8),[1],up
same,Log2_FC ASCL1,[2],−0.47
same,Log2_FC GRP,[2],−0.77
same,Log2_FC NOTCH1,[2],−0.17
same,Log2_FC ASCL1,[3],−0.63
same,Log2_FC GRP,[3],−1.46
same,Log2_FC NOTCH1,[3],0.57
same,Log2_FC ASCL1,[4],−0.75
same,Log2_FC GRP,[4],−1.26
same,Log2_FC NOTCH1,[4],0.94
same,Log2_FC ASCL1,[5],−0.71
same,Log2_FC GRP,[5],−0.51
same,Log2_FC NOTCH1,[5],0.26
same,Log2_FC ASCL1,[6],−1.33
same,Log2_FC GRP,[6],−2.14
same,Log2_FC NOTCH1,[6],2.26
same,Log2_FC ASCL1,[7],−1.36
same,Log2_FC GRP,[7],−2.12
same,Log2_FC NOTCH1,[7],2.38
same,Log2_FC ASCL1,[8],−0.80
same,Log2_FC GRP,[8],−0.97
same,Log2_FC NOTCH1,[8],1.33
same,Log2_FC ASCL1,[9],−1.40
same,Log2_FC GRP,[9],−2.19
same,Log2_FC NOTCH1,[9],2.42
same,Log2_FC ASCL1,[10],−1.62
same,Log2_FC GRP,[10],−2.85
same,Log2_FC NOTCH1,[10],3.22
same,Log2_FC ASCL1,"NCI-H187, 0.1 nM, 24 hrs",0.07
same,Log2_FC GRP,"NCI-H187, 0.1 nM, 24 hrs",0.16
same,Log2_FC NOTCH1,"NCI-H187, 0.1 nM, 24 hrs",−0.27
same,Log2_FC ASCL1,"NCI-H187, 0.1 nM, 96 hrs",0.24
same,Log2_FC GRP,"NCI-H187, 0.1 nM, 96 hrs",−0.29
same,Log2_FC NOTCH1,"NCI-H187, 0.1 nM, 96 hrs",0.10
same,Log2_FC ASCL1,"NCI-H187, 0.1 nM, 168 hrs",0.11
same,Log2_FC GRP,"NCI-H187, 0.1 nM, 168 hrs",−0.50
same,Log2_FC NOTCH1,"NCI-H187, 0.1 nM, 168 hrs",0.27
same,Log2_FC ASCL1,"NCI-H187, 1 nM, 24 hrs",−0.01
same,Log2_FC GRP,"NCI-H187, 1 nM, 24 hrs",0.05
same,Log2_FC NOTCH1,"NCI-H187, 1 nM, 24 hrs",0.49
same,Log2_FC ASCL1,"NCI-H187, 1 nM, 96 hrs",0.05
same,Log2_FC GRP,"NCI-H187, 1 nM, 96 hrs",−0.03
same,Log2_FC NOTCH1,"NCI-H187, 1 nM, 96 hrs",0.81
same,Log2_FC ASCL1,"NCI-H187, 1 nM, 168 hrs",0.16
same,Log2_FC GRP,"NCI-H187, 1 nM, 168 hrs",−0.59
same,Log2_FC NOTCH1,"NCI-H187, 1 nM, 168 hrs",0.95
same,Log2_FC ASCL1,"NCI-H187, 10 nM, 24 hrs",0.13
same,Log2_FC GRP,"NCI-H187, 10 nM, 24 hrs",−0.16
same,Log2_FC NOTCH1,"NCI-H187, 10 nM, 24 hrs",0.42
same,Log2_FC ASCL1,"NCI-H187, 10 nM, 96 hrs",0.13
same,Log2_FC GRP,"NCI-H187, 10 nM, 96 hrs",−0.61
same,Log2_FC NOTCH1,"NCI-H187, 10 nM, 96 hrs",0.83
same,Log2_FC ASCL1,"NCI-H187, 10 nM, 168 hrs",0.07
same,Log2_FC GRP,"NCI-H187, 10 nM, 168 hrs",−0.67
same,Log2_FC NOTCH1,"NCI-H187, 10 nM, 168 hrs",1.44
same,Log2_FC ASCL1,"NCI-H446, 0.1 nM, 24 hrs",−0.27
same,Log2_FC NOTCH1,"NCI-H446, 0.1 nM, 24 hrs",−0.04
same,Log2_FC NOTCH1,"NCI-H446, 0.1 nM, 96 hrs",−0.13
same,Log2_FC ASCL1,"NCI-H446, 0.1 nM, 168 hrs",−0.56
same,Log2_FC NOTCH1,"NCI-H446, 0.1 nM, 168 hrs",−0.40
same,Log2_FC ASCL1,"NCI-H446, 1 nM, 24 hrs",0.00
same,Log2_FC NOTCH1,"NCI-H446, 1 nM, 24 hrs",−0.02
same,Log2_FC ASCL1,"NCI-H446, 1 nM, 96 hrs",−0.20
same,Log2_FC NOTCH1,"NCI-H446, 1 nM, 96 hrs",0.06
same,Log2_FC ASCL1,"NCI-H446, 1 nM, 168 hrs",0.02
same,Log2_FC NOTCH1,"NCI-H446, 1 nM, 168 hrs",0.29
same,Log2_FC ASCL1,"NCI-H446, 10 nM, 24 hrs",−0.34
same,Log2_FC NOTCH1,"NCI-H446, 10 nM, 24 hrs",0.04
same,Log2_FC NOTCH1,"NCI-H446, 10 nM, 96 hrs",0.16
same,Log2_FC ASCL1,"NCI-H446, 10 nM, 168 hrs",0.58
same,Log2_FC NOTCH1,"NCI-H446, 10 nM, 168 hrs",0.42
same,Log2_FC NOTCH1,"NCI-H510A, 0.1 nM, 24 hrs, vs vehicle at 24 hr",0.53
same,Log2_FC NOTCH1,"NCI-H510A, 0.1 nM, 96 hrs, vs vehicle at 24 hr",1.93
same,Log2_FC NOTCH1,"NCI-H510A, 0.1 nM, 168 hrs, vs vehicle at 24 hr",3.00
same,Log2_FC ASCL1,"NCI-H510A, 0.1 nM, 24 hrs",0.07
same,Log2_FC GRP,"NCI-H510A, 0.1 nM, 24 hrs",0.22
same,Log2_FC ASCL1,"NCI-H510A, 0.1 nM, 96 hrs",0.17
same,Log2_FC GRP,"NCI-H510A, 0.1 nM, 96 hrs",−0.30
same,Log2_FC ASCL1,"NCI-H510A, 0.1 nM, 168 hrs",0.03
same,Log2_FC GRP,"NCI-H510A, 0.1 nM, 168 hrs",−0.44
same,Log2_FC ASCL1,"NCI-H510A, 1 nM, 24 hrs",−0.23
same,Log2_FC GRP,"NCI-H510A, 1 nM, 24 hrs",−0.30
same,Log2_FC NOTCH1,"NCI-H510A, 1 nM, 24 hrs",1.19
same,Log2_FC ASCL1,"NCI-H510A, 1 nM, 96 hrs",−0.50
same,Log2_FC GRP,"NCI-H510A, 1 nM, 96 hrs",−1.75
same,Log2_FC NOTCH1,"NCI-H510A, 1 nM, 96 hrs",2.87
